Reference: PMC11173485, “Connecting GSK-3β Inhibitory Activity with IKK-β or ROCK-1 Inhibition to Target Tau Aggregation and Neuroinflammation in Alzheimer’s Disease—Discovery, In Vitro and In Cellulo Activity of Thiazole-Based Inhibitors” (Molecules, 2024)

Assays:
[1] = Cytotoxicity, PrestoBlue cell viability assay in HT-22 cells; assay type: cell-based, mouse; conditions: mouse, HT-22 hippocampal neuronal cells, 24 h; for viability at 24 h, 1 µM: 1 µM (log C -6); for viability at 24 h, 1 µM / viability at 24 h, 10 µM / viability at 24 h, 50 µM / viability at 24 h, 100 µM / viability at 24 h, 0.1 µM: read-out: neurotoxicity in HT-22 cells, % of cell viability; for viability at 24 h, 10 µM: 10 µM (log C -5); for viability at 24 h, 50 µM: 50 µM (log C -4.3); for viability at 24 h, 100 µM: 100 µM (log C -4); for IC50 at 24 h: PrestoBlue, mean ± SEM, read-out: Cytotoxicity in HT-22 Cells (IC50 x¯ ± SEM µM)
Description: (§1) We assessed their cytotoxic effects at five concentrations (0.1, 1, 10, 50, and 100 µM) in HT-22 (mouse hippocampal neuronal cells) and BV-2 (mouse microglial cells) cell lines using a fluorometric assay with PrestoBlue™ cell viability reagent (Table 4, Table S2 in the SI).
(§2) Mouse microglial cells (BV-2) were a generous gift from Professor Bozena Kaminska-Kaczmarek of the Laboratory of Molecular Neurobiology, Neurobiology Center, Nencki Institute of Experimental Biology, Polish Academy of Sciences, Warsaw, Poland. Cells were cultured in Dulbecco’s modified Eagle’s Medium-high glucose (DMEM, Glutamx Thermo Fisher, Waltham, MA, USA) supplemented with 10% inactivated fetal bovine serum (Thermo Fisher), 100 IU/mL penicillin (Merck), and 100 µg/mL streptomycin (Merck). Cells were cultured in flasks (area 175 cm^2, Nunc) and incubated at 37 °C, 5% CO2. To evaluate the level of NO, IL-6, and TNF-α and the effectiveness of the compounds tested, BV-2 microglia cells were cultured in 96-well culture plates (5 × 10^4 cells per well, Falcon). For the measurement of cell viability and cell membrane damage, cells were placed in 96-well culture plates (2 × 10^4 cells per well, Falcon). Before the tests, cells were grown for 24 h in the incubator (37 °C, 5% CO2). Mouse Hippocampal Neuronal Cell Line (HT-22) was a generous gift from Dr Bartosz Pomierny of the Department of Biochemical Toxicology, Jagiellonian University Medical College, Krakow, Poland. Cells were cultured in Dulbecco’s modified Eagle’s Medium-high glucose (DMEM, Glutamx Thermo Fisher) supplemented with 10% inactivated fetal bovine serum (Thermo Fisher), 100 IU/mL penicillin (Merck), and 100 µg/mL streptomycin (Merck). Cells were cultured in flasks (area 175 cm^2, Nunc) and incubated at 37 °C, 5% CO2. For the measurement of cell viability and neuroprotective effects against okadaic acid, cells were placed in 96-well culture plates (2 × 10^4 cells per well, Falcon). Before the tests, cells were grown for 24 h in the incubator (37 °C, 5% CO2).
(§3) Cell viability was evaluated using the PrestoBlue reagent (Thermo Fisher), according to the manufacturer’s procedures. Following 24 h of incubation with the tested molecule, PrestoBlue reagent was added to a microplate well in an amount equal to one-tenth of the remaining medium volume. The resulting mixture was incubated for 15 min at 37 °C, and the fluorescence intensity (EX 530; EM 580 nm) was measured using the plate reader POLARstar Omega, (BMG Labtech, Ortenberg, Germany). The results (viability values) are provided as a percentage of live cells with respect to DMSO (control sample).
(§4) Cytotoxic effects of selected inhibitors in HT-22 mouse hippocampal neuronal cells and BV-2 mouse microglial cells
(§5) Table S2. Cytotoxic effects of selected inhibitors in HT-22 mouse hippocampal neuronal cells and BV-2 mouse microglial cells. neurotoxicity in HT-22 cellsa immunotoxicity in BV-2 cellsa […]
(§6) a % of cell viability at the given concentration of tested compound; mean value ± standard deviation (SD) of triplicates; b half maximal inhibitory concentration of the tested compound; mean value ± standard error of the mean (SEM) of triplicates; c data obtained in log C of 39 of -8.5; -7.5; -6.5; -5.5; -5, respectively; d data obtained in log C of 49 of -7.5; -6.5; -5.5; -4.5; -4. respectively; nt, not tested.

[2] = tested on: HT-22 (mouse hippocampal neuronal cells); test: as above; assay type: cell-based; conditions: for effect on cell viability in HT-22 cells (in words): 0.1, 1, 10, 50, and 100 µM
Description: as §1, §2, §3, §4, §5, §6

GSK-3β = GSK-3β (Homo sapiens, UniProt P49841); test: ADP-Glo kinase assay, GSK-3β inhibition; assay type: biochemical; parameters: purchased Promega; conditions: for IC50: mean ± SEM, ATP 25 µM
From the text: We evaluated the inhibitory activity of the final compounds against GSK-3β, IKK-β, and ROCK-1 kinases using the commercially available ADP-Glo™ kinase assay. The method was based on the measurement of luminescence that correlates with kinase activity. […] The latter are inhibitors of the kinases of interest and were integral to the design of our studies.
Promega’s Kinase Enzyme Systems (Promega; Madison, WI, USA) were used to determine the activities of the tested compounds against the human recombinant kinases GSK-3β, IKK- β, and ROCK-1. The assays were performed according to the provided manufacturer’s instruction, based on the optimized conditions of the enzymatic reactions, using the low-volume, white polystyrene, 384-well plates. The ADP-Glo™ Assay (Promega; Madison, WI, USA) was used for bioluminescent detection of the kinase activity. Stock solutions of the tested compounds in DMSO (1mM) were diluted with the Kinase Assay Buffer before use (40 mM Tris, pH 7.5, enriched with 50 µM dithiothreitol; DTT), giving the final desired concentrations. The kinase enzymes, substrates, and ATP solutions were also diluted with the assay buffer prior to use. The GSK-3β, IKK-β, and ROCK-1 substrates were derived from human muscle glycogen synthase 1, human IkBA, and human 40S ribosomal protein S6, respectively. The assay procedure was as follows: At first, the appropriate kinase enzyme (GSK-3β: 10 ng per well; IKK-β: 45 ng per well; ROCK-1: 24 ng per well) was incubated with the tested sample (10 µM in well) for 5 min. The DMSO solution (1% in well) was used in the blank samples instead of the tested inhibitors. After the incubation period, ATP (25 µM per well in the case of GSK-3β and IKK-β kinases; 5 µM per well in the case of ROCK-1 kinase) and an appropriate enzyme substrate (0.2 µg/µL in well) were added to start the enzymatic reaction. The reaction mixture was kept at room temperature for 1 h; then, the ADP-Glo™ reagent was added, to terminate the kinase reaction and deplete any remaining ATP. After 40 min, a second reagent (Kinase Detection Reagent) was applied to convert the obtained ADP to ATP and to generate light from the newly synthesized ATP using a luciferase/luciferin reaction. The mixture was incubated for another 30 min at room temperature before the luminescence was measured. The calculations of the percent of kinases’ inhibition by tested compounds were based on the equation 100 − (S/B) × 100; S and B are the enzyme activities with and without the tested sample, respectively. […] Each compound was evaluated in two independent experiments, with every data point collected in duplicate.

Sequence of GSK-3β (P49841 whole entry): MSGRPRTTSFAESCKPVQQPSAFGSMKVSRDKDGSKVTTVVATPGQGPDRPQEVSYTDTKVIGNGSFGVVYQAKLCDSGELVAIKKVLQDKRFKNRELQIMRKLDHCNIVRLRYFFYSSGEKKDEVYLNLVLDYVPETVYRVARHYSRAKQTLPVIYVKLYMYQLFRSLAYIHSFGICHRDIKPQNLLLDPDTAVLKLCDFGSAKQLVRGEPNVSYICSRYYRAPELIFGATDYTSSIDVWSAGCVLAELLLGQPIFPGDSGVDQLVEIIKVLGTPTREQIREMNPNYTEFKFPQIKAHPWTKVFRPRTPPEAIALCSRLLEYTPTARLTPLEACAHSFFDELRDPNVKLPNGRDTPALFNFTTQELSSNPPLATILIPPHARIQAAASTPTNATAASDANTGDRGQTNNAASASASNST

Row | SMILES | IC50 (GSK-3β) [nM] | viability at 24 h, 1 µM [1] [%] | viability at 24 h, 10 µM [1] [%] | viability at 24 h, 50 µM [1] [%] | viability at 24 h, 100 µM [1] [%] | IC50 at 24 h [1] [µM] | viability at 24 h, 0.1 µM [1] [%] | effect on cell viability in HT-22 cells (in words) [2] | effect on viability of HT-22 cells at concentrations up to 10 µM (in words) [2] | inhibition at 10 µM (GSK-3β; 10 µM, mean ± SD, read-out: % inh. at 10 µM GSK-3β) [%]
1 | CC(C)C(=O)Nc1cc(-c2cc3c(s2)C(=O)NC(C)(C)N3)ccn1 [Compound 39, N-(4-(2,2-Dimethyl-4-oxo-1,2,3,4-tetrahydrothieno [3,2-d]pyrimidin-6-yl)pyridin-2-yl)isobutyramide] | 12 | 84 | 55 | 35 | 29 | 8.4 ± 5.3 | 91 | decreased cells’ viability | – | –
2 | CC1(C)NC(=O)c2sc(-c3ccnc(NC(=O)C4CC4)c3)cc2N1 [Compound 40, N-(4-(2,2-Dimethyl-4-oxo-1,2,3,4-tetrahydrothieno [3,2-d]pyrimidin-6-yl)pyridin-2-yl)-cyclopropanecarboxamide] | 10 | 105 | 71 | 28 | 21 | 19.9 ± 4.1 | 100 | decreased cells’ viability | – | –
3 | NC(=O)Nc1cc(-c2ccnc(NC(=O)C3CC3)c2)sc1C(N)=O [Compound 49, 5-(2-(Cyclopropanecarboxamido)pyridin-4-yl)-3-ureidothiophene-2-carboxamide] | 20 | 102 | 101 | 88 | 76 | > 100 | 95 | no significant decrease in cell viability | did not decrease the viability of the cells | –
4 | NC(=O)Nc1cc(-c2ccnc(NC(=O)C3CCC3)c2)sc1C(N)=O [Compound 50, 5-(2-(Cyclobutanecarboxamido)pyridin-4-yl)-3-ureidothiophene-2-carboxamide] | 34 | – | – | – | – | – | – | no significant decrease in cell viability | – | –
5 | NC(=O)Nc1cc(-c2cccc(NC(=O)C3CC3)c2)sc1C(N)=O [Compound 58, 5-(3-(Cyclopropanecarboxamido)phenyl)-3-ureidothiophene-2-carboxamide] | – | 92 | 89 | 54 | 45 | 67.1 ± 14.5 | 94 | decreased cells’ viability | did not decrease the viability of the cells | 36
6 | O=C1NC2(CCOC2)Nc2cc(-c3ccnc(NC(=O)C4CC4)c3)sc21 (stereo not shown) [Compound 62, N-(4-(4′-Oxo-3′,4,4′,5-tetrahydro-1′H,2H-spiro[furan-3,2′-thieno [3,2-d]pyrimidin]-6′-yl)pyridin-2-yl)cyclopropanecarboxamide] | 8 | 108 | 105 | 35 | 29 | 58.3 ± 10 | 106 | decreased cells’ viability | did not decrease the viability of the cells | –

The next lines start with results.

Row | IC50 (GSK-3β) [nM] | SMILES | viability at 24 h, 1 µM [1] [%] | viability at 24 h, 10 µM [1] [%] | viability at 24 h, 50 µM [1] [%] | viability at 24 h, 100 µM [1] [%] | IC50 at 24 h [1] [µM] | viability at 24 h, 0.1 µM [1] [%] | effect on cell viability in HT-22 cells (in words) [2] | effect on viability of HT-22 cells at concentrations up to 10 µM (in words) [2] | inhibition at 10 µM (GSK-3β; 10 µM, mean ± SD, read-out: % inh. at 10 µM GSK-3β) [%]
7 | 32 ± 1 | CC1(C)NC(=O)c2sc(-c3ccnc(NC(=O)C4CCC4)c3)cc2N1 [Compound 41, N-(4-(2,2-Dimethyl-4-oxo-1,2,3,4-tetrahydrothieno [3,2-d]pyrimidin-6-yl)pyridin-2-yl)-cyclobutanecarboxamide] | – | – | – | – | – | – | decreased cells’ viability | – | –
8 | 22 | CC(C)C(=O)Nc1cc(-c2cc(NC(N)=O)c(C(N)=O)s2)ccn1 [Compound 48, 5-(2-Isobutyramidopyridin-4-yl)-3-ureidothiophene-2-carboxamide] | 89 | 77 | 52 | – | 36.6 ± 4.3 | 92 | decreased cells’ viability | – | –
9 | 10 | O=C1NC2(CCCC2)Nc2cc(-c3ccnc(NC(=O)C4CC4)c3)sc21 [Compound 60, N-(4-(4’-Oxo-3’,4’-dihydro-1’H-spiro[cyclopentane-1,2’-thieno [3,2-d]pyrimidin]-6’-yl)pyridin-2-yl)cyclopropanecarboxamide] | 105 | 62 | 36 | 31 | 9.7 ± 5.8 | 101 | decreased cells’ viability | – | –
10 | 5 | COc1nc(-c2ccnc(NC(=O)C3CC3)c2)sc1C(N)=O [II, reference compound] | 104 | 87 | 77 | 64 | > 100 | 107 | decreased cells’ viability | – | –
